Experimental data reported in ChEMBL document CHEMBL1201862, “PubChem BioAssay data set” (2004).
Active and inactive are the calls of the source.

How the values were obtained:
[1] = loss of viability in HepG2 cells – cell-based, CellTiter-Glo, cherry-picked, cytotoxicity control for Shn3 inhibitor project, dose response (AID 624134); type: functional
Nonstructural protein 1 = Nonstructural protein 1 (Influenza A virus, UniProt Q194T2); type: functional, Influenza A virus (A/California/07/2009(H1N1))
Sequence of Nonstructural protein 1 (Q194T2 whole entry): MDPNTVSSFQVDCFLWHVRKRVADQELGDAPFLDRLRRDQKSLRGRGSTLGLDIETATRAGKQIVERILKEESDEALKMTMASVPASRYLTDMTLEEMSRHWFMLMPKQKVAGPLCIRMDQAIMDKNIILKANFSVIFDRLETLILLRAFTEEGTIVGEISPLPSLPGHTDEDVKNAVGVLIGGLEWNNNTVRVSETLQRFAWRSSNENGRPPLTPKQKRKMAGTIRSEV

[2] = non-specific 3'UTR reporter inhibition in Clone20-Shn3RL – cell-based, Renilla luciferase, cherry-picked, counter-screen for Shn3 inhibitor project, dose response (AID 624133); type: functional
[3] = reduction of Shn3 3'UTR-driven luciferase in osteoblasts – cell-based, Clone20 osteoblasts, firefly luciferase, cherry-picked, dose response (AID 624132); type: functional;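 also: firefly luciferase luminescence from reporter carrying the Shn3 3'UTR in osteoblasts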
[4] = biological target: Peroxisome proliferator-activated receptor gamma/Nuclear receptor coactivator 3 (Homo sapiens, UniProt P37231); assay: TR-FRET dose response biochemical High Throughput Screening assay for agonists of the steroid receptor coactivator 3 (SRC-3) recruitment by the peroxisome proliferator-activated receptor gamma (PPAR gamma): non-selective agonists. [Related pubchem assays: 1301 (Confirmation screen.), 1048 (Primary screen.)]; type: functional
Sequence of Peroxisome proliferator-activated receptor gamma/Nuclear receptor coactivator 3 (P37231 whole entry): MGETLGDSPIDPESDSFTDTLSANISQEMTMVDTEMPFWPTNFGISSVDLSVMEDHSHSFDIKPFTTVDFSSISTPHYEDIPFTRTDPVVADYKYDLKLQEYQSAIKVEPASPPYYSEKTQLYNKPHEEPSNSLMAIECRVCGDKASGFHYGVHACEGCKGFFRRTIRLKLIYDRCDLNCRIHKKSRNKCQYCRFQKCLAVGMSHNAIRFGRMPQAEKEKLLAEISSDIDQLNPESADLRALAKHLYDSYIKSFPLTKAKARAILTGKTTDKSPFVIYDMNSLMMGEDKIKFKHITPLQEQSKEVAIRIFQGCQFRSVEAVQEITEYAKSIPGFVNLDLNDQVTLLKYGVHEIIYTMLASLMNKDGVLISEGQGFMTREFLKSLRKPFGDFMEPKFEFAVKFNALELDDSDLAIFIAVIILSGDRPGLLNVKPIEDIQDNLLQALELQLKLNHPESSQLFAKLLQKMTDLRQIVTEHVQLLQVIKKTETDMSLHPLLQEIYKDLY
Sequence of Peroxisome proliferator-activated receptor gamma/Nuclear receptor coactivator 3 (Q9Y6Q9 whole entry, further chain): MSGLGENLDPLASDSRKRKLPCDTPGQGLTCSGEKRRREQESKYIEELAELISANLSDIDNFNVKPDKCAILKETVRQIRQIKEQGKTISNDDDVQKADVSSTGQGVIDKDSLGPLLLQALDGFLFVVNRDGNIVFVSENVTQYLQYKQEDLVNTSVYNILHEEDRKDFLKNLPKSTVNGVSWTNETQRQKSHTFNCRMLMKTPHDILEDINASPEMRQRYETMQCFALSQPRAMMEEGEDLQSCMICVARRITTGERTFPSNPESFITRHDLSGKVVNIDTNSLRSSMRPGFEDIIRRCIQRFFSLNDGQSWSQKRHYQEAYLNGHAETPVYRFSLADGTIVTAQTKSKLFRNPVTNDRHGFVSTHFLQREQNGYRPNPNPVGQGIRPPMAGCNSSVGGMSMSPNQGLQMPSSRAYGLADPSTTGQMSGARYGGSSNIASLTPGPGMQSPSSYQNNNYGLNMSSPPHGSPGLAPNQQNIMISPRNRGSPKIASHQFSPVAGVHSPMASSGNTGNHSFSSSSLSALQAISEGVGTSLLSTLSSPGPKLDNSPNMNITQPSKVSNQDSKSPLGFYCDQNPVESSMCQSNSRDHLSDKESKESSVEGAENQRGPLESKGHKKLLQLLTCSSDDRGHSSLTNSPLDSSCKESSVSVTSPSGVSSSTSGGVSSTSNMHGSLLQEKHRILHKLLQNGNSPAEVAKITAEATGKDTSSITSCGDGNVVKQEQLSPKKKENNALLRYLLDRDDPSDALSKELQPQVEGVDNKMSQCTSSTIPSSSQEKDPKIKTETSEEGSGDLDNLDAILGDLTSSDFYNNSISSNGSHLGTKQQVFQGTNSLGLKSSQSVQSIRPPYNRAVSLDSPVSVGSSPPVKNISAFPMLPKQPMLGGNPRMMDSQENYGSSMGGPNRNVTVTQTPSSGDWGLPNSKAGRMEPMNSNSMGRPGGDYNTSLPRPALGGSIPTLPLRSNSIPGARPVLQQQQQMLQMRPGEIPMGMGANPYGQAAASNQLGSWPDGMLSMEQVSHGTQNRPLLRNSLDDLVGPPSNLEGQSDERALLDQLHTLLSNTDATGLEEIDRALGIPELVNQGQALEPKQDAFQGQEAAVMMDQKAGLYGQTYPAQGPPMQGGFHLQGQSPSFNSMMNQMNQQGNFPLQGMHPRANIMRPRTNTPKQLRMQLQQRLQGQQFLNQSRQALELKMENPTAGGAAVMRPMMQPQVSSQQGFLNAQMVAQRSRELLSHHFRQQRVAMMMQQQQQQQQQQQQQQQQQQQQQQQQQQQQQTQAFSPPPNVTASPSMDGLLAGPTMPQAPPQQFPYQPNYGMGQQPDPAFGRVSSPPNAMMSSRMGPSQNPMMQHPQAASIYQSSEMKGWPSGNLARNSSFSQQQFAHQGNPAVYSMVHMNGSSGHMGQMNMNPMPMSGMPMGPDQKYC

[5] = biological target: Peroxisome proliferator-activated receptor gamma/Nuclear receptor coactivator 1 (Homo sapiens, UniProt P37231); assay: TR-FRET dose response biochemical High Throughput Screening assay for agonists of the steroid receptor coactivator 1 (SRC-1) recruitment by the peroxisome proliferator-activated receptor gamma (PPAR gamma): non-selective agonists. [Related pubchem assays (depositor defined):AID1300, AID1808, AID504735, AID631]; type: protein assay
Sequence of Peroxisome proliferator-activated receptor gamma/Nuclear receptor coactivator 1 (P37231 whole entry): as the sequence (P37231 whole entry) above
Sequence of Peroxisome proliferator-activated receptor gamma/Nuclear receptor coactivator 1 (Q15788 whole entry, further chain): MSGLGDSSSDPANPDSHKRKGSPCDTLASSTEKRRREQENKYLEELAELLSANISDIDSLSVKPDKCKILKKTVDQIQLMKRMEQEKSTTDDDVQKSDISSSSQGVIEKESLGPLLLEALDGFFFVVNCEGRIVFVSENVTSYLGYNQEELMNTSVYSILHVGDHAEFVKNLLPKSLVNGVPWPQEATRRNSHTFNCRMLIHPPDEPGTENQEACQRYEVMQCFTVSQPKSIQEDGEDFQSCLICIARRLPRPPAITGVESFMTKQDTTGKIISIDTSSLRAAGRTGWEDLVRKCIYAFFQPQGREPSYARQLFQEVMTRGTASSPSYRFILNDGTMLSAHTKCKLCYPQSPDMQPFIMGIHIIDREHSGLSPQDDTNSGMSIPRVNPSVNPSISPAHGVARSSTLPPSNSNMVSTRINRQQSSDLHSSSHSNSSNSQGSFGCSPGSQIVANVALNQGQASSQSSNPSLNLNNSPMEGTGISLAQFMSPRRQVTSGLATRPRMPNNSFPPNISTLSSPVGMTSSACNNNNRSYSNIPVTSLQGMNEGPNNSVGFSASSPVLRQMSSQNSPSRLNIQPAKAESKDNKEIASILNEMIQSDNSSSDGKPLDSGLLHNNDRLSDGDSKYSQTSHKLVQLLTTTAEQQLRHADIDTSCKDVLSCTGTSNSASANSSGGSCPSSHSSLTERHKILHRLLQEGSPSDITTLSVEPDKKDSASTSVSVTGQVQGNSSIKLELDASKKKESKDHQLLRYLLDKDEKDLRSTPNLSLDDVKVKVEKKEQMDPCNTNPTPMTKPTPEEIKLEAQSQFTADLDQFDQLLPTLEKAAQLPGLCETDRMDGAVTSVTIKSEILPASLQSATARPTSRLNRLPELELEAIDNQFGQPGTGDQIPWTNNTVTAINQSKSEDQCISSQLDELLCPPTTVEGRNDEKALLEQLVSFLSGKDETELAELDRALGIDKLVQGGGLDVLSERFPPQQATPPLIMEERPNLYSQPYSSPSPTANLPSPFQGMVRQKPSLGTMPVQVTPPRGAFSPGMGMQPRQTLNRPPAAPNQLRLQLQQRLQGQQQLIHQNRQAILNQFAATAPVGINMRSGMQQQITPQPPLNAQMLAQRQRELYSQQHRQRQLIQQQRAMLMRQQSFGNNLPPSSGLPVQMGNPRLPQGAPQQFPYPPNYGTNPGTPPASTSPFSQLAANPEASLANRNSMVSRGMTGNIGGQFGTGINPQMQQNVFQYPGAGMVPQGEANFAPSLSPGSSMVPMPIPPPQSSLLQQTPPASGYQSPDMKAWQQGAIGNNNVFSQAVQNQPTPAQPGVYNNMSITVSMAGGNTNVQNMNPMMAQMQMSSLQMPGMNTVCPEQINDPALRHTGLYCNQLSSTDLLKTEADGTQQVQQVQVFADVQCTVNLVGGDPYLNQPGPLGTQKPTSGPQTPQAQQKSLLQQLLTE

[6] = biological target: Peroxisome proliferator-activated receptor gamma/Nuclear receptor coactivator 2 (Homo sapiens, UniProt P37231); assay: TR-FRET dose response biochemical High Throughput Screening assay for agonists of the steroid receptor coactivator 2 (SRC-2) recruitment by the peroxisome proliferator-activated receptor gamma (PPAR gamma): non-selective agonists. [Related pubchem assays: 1297, 1032 ]; type: functional
cells [7] = type: functional, cell-based
cells [8] = type: functional, cell-based; remark: listed apart in the source
Streptokinase A = biological target: T1, Streptokinase A (Streptococcus pyogenes serotype M1, UniProt P10520); assay: viability-normalized secreted streptokinase activity reduction – plasminogen activation absorbance, OD405, dose response (AID 1914); type: functional, Streptococcus pyogenes M1 GAS;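 also: secreted streptokinase activity via plasminogen activation per viability signal from cell pellet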
T1 sequence (P10520 whole entry): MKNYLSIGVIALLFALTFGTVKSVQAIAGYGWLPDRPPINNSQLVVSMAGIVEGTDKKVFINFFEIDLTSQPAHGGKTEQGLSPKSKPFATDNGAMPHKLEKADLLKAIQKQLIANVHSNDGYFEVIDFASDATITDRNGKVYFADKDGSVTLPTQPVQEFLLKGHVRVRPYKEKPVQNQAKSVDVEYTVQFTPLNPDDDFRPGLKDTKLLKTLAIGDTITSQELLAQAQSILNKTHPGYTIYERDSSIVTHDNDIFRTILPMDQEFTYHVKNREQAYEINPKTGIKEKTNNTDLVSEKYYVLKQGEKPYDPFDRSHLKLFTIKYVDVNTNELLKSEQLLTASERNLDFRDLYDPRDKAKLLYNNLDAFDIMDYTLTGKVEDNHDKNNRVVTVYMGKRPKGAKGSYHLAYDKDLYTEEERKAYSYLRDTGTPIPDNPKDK

[9] = Luminescence Cell-Based Dose Response HTS to Identify Activators of Luciferase Translation or Activity in H4 […] Cells. [Related pubchem assays: 1829 (Project Summary), 1814 (Primary HTS)]; type: functional
H4 = assay: Luminescence Cell-Based Dose Response HTS to Identify Activators of 5'UTR Stem-Loop Driven Prion Protein mRNA Translation in H4 Neuroglioblastoma Cells. [Related pubchem assays: 1829 (Project Summary), 1814 (Primary HTS)]; type: functional; conditions: Homo sapiens
[10] = Luminescence Cell-Based Dose Confirmation HTS to Identify Activators of 5'UTR Stem-Loop Driven Alpha-Synuclein mRNA Translation in H4 Neuroglioblastoma Cells. [Related pubchem assays: 1829 (Project Summary), 1814 (Primary HTS)]; type: functional
[11] = system: Streptococcus sp. 'group A'; assay: Streptococcus pyogenes SK(-)GAS viability under kanamycin – luminescence, BacTiterGlo, confirmation, counter-screen for streptokinase expression inhibitor project, dose response (AID 1900); type: functional, organism-based
Streptococcus = assay: GAS UMAA2166 growth inhibition – luminescence, BacTiterGlo, counter-screen for streptokinase expression inhibitor project, dose response (AID 1915); type: functional, organism-based;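 also: potency for reduction of bacterial viability or growth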
[12] = viability of uninfected HEp-2 cells – cell-based, HTS, cytotoxicity control for RSV inhibitor project, dose response (AID 2410); type: functional; conditions: human respiratory syncytial virus
[13] = NIH3T3 cell viability loss – ATP luminescence, mouse fibroblasts, counter-screen, dose response (AID 2010); type: functional, cell-based;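 also: cells exposed to compound for about 90 hours before reading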
Protein skinhead-1 = biological target: T2, Protein skinhead-1 (Caenorhabditis elegans, UniProt P34707); type: functional
T2 sequence (P34707 whole entry): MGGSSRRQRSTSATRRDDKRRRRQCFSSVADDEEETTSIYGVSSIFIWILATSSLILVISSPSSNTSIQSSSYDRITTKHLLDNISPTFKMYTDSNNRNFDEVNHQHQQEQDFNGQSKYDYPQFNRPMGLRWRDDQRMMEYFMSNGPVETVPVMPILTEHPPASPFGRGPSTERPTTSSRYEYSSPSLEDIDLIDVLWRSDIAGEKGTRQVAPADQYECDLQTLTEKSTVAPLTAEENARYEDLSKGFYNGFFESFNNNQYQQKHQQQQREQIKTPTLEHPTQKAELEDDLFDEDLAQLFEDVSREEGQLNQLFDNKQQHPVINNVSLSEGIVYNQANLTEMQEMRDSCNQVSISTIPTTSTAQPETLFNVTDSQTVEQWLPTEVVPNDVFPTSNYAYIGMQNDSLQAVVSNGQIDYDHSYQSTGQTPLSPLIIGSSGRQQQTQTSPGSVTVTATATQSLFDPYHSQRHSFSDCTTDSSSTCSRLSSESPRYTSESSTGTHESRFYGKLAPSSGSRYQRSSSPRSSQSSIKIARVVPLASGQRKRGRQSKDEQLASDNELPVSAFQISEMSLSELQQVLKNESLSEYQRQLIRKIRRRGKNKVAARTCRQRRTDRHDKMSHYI

[14] = Trypanosoma cruzi growth suppression in host cells – NIH3T3 host cells, beta-gal luminescence, confirmation (AID 2044); type: functional, cell-based;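 also: intracellular parasites grown in NIH/3T3 mouse fibroblasts as host cells; luminescent beta-galactosidase reporter signal from transgenic T. cruzi replicating inside host cells; inhibitors lower the luminescence signal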
[15] = viability of HCT116 lacking mutant beta-catenin – cell-based, human colon tumor, dose response (AID 1045); type: functional;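 also: HCT116 colon tumor cells with beta catenin knocked out; cells exposed to compound for 60 hours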
[16] = viability of PTEN-deleted HCT116 cells – cell-based, HCT116 PTEN knockout, dose response (AID 1047); type: functional;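 also: HCT116 colon tumor cells with PTEN knocked out; cells exposed to compound for 60 hours before readout; potency for loss of cell viability measured by luminescence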
INS1 = assay: INS-1E survival protection against cytokine death – cell-based, luminescence, retest, dose response (AID 449756); type: functional; conditions: Rattus norvegicus;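 also: cell death triggered by IL-1 beta plus TNF-alpha plus IFN-gamma mixture; protective hits raise ATP signal compared with cytokine alone wells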
[17] = biological target: FAD-linked sulfhydryl oxidase ALR (Homo sapiens, UniProt P55789); assay: ALR-catalysed DTT oxidation blockers – biochemical, H2O2 detection, luminescence, cherry-pick, dose response (AID 493248)
Sequence of FAD-linked sulfhydryl oxidase ALR (P55789 whole entry): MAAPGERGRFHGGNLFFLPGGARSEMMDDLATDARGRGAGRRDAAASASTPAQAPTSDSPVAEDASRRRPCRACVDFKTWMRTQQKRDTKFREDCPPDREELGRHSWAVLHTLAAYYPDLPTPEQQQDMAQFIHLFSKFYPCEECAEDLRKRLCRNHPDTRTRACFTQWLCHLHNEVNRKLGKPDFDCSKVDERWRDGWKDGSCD

Structure (SMILES): Oc1cc(Nc2cccnc2)cc2cccnc12
- AC50 [1]: 38.8 µM (active)
- IC50 (Nonstructural protein 1): 8.89 µM (active)
- AC50 [2]: 4.72 µM (active)
- AC50 [3]: 2.12 µM (active)

Structure (SMILES): CCOC(=O)c1sc(-c2ccc(OC)cc2)cc1NC(C)=O
- EC50 [4]: > 79.4 µM (not active)
- EC50 [5]: > 79.4 µM (inactive)
- EC50 [6]: 22 µM (not active)

Structure (SMILES): CSc1sc(C(=O)N2CCCCC2)c(-c2cccs2)c1C#N
- EC50 (cells [7]): > 350 µM (not active)
- EC50 (cells [8]): > 350 µM (not active)

Structure (SMILES): CC(OC(=O)c1ncc(Cl)c(Cl)c1Cl)C(=O)NC1(C#N)CCCCC1 (stereo not given)
- EC50 (cells [7]): > 350 µM (not active)
- EC50 (cells [8]): > 350 µM (not active)

Structure (SMILES): Cc1ccc(-c2nn(-c3ccccc3)cc2/C=N/NC(=O)CSc2nnc(C)n2-c2ccccc2)cc1
- EC50 (Streptokinase A): 65.8 µM (active)
- EC50 [9]: 63.4 µM (active)
- EC50 (H4): 16.6 µM (active)
- EC50 [10]: 13.4 µM (active)
- EC50 [11]: 7.47 µM (active)
- EC50 (Streptococcus): 33.5 µM (active)

Structure (SMILES): Cc1ccc2[nH]c(SCC(=O)c3ccc(O)cc3O)nc2c1
- EC50 [9]: 16.5 µM (active)
- EC50 (H4): 52.9 µM (active)
- EC50 [10]: 9.48 µM (active)

Structure (SMILES): O=C(O)CN(CC(=O)O)CC(=O)O [NITRILOTRIACETIC ACID]
- IC50 (Nonstructural protein 1): 17.7 µM (active)

Structure (SMILES): CC(C(=O)Nc1ccccc1-c1ccccc1)N(C)Cc1nc(O)c2ccccc2n1 (stereo not given)
- EC50 (cells [7]): > 350 µM (not active)
- EC50 (cells [8]): > 350 µM (not active)

Structure (SMILES): O=C(Nc1ccc2c(c1)nc1n2CCN(Cc2ccccc2)C1)c1cccs1
- EC50 [9]: 13.6 µM (active)
- EC50 (H4): > 120 µM (not active)
- EC50 [10]: 17.2 µM (active)

Structure (SMILES): C/C(=N\OC(=O)c1ccc(F)cc1)c1sc(-c2ccccc2)nc1C
- CC50 [12]: > 50 µM (active)

Structure (SMILES): Cc1cccc(/C=C/C(=O)c2ccc(NC3=NCCCS3)cc2)c1
- EC50 [13]: > 60 µM (not active)
- EC50 [9]: 9.88 µM (active)
- EC50 (H4): > 120 µM (not active)
- EC50 [10]: 23.3 µM (active)
- IC50 (Protein skinhead-1): 19.9 µM (active)
- EC50 [14]: 2.23 µM (active)

Structure (SMILES): COc1ccccc1N1CCN(c2cc(=O)n(Cc3ccc(F)cc3)c(=O)[nH]2)CC1
- EC50 [15]: 10.1 µM (active)
- EC50 [16]: 10.5 µM (active)

Structure (SMILES): COc1cccc2[nH]c3c(N4CCc5ccccc5C4)ncnc3c12
- CC50 [12]: > 50 µM (active)

Structure (SMILES): COCCn1c(C)cc(C(=O)CN2C(=O)NC3(CCCCCCC3)C2=O)c1C
- EC50 [9]: 0.283 µM (active)
- EC50 (H4): 8.28 µM (active)
- EC50 [10]: 0.94 µM (active)

Structure (SMILES): O=S(=O)(c1ccccc1)N1CCC(c2nc(O)c3nnn(Cc4cccc(Cl)c4)c3n2)CC1
- CC50 [12]: 22.3 µM (active)

Structure (SMILES): Cc1ccc(C)c(CNS(=O)(=O)c2ccc3c(c2)C(C)(C)C(=O)N3C)c1
- EC50 (cells [7]): > 350 µM (not active)
- EC50 (cells [8]): > 350 µM (not active)

Structure (SMILES): COc1ccccc1C(=O)Nc1ccc(S(=O)(=O)N2CCc3ccccc32)cc1
- CC50 [12]: 48.7 µM (active)

Structure (SMILES): COc1ccccc1C(=O)Nc1nnc(CCc2ccccc2)s1
- EC50 [9]: 8.71 µM (active)
- EC50 (H4): > 120 µM (not active)
- EC50 [10]: > 120 µM (not active)

Structure (SMILES): FC(F)Oc1ccc(C2NC(c3ccccc3)=NO2)cc1 (stereo not given)
- EC50 [10]: 0.115 µM (active)
- IC50 (Protein skinhead-1): 80.6 µM (inactive)

Structure (SMILES): OCCCn1c(C2CCCN2c2nc(-c3ccc(F)cc3)cs2)nc2cc(C(F)(F)F)ccc21 (stereo not given)
- CC50 [12]: 16.8 µM (active)

Structure (SMILES): CC(=O)c1cccc(NS(=O)(=O)c2ccc(-c3cc(C)no3)s2)c1
- EC50 (cells [7]): > 350 µM (not active)
- EC50 (cells [8]): > 350 µM (not active)

Structure (SMILES): COc1ccc(OC)c(-c2csc(NC(=O)Cc3ccccc3OC)n2)c1
- CC50 [12]: 25.3 µM (active)

Structure (SMILES): FC(F)(F)c1ccc(-c2csc(-c3ccno3)n2)cc1
- IC50 (Protein skinhead-1): 23.1 µM (active)

Structure (SMILES): CN(C)c1cccc(O)c1
- IC50 (Protein skinhead-1): > 100 µM (inactive)

Structure (SMILES): Clc1ccc(CSc2ccc(-c3ccccn3)nn2)cc1
- EC50 [13]: > 30 µM (not active)
- EC50 (cells [7]): 12.5 µM (active)
- AC50 (INS1): 5.06 µM (active)
- EC50 [14]: 1.84 µM (active)
- EC50 (cells [8]): 43.7 µM (active)

Structure (SMILES): CCS(=O)(=O)c1ccc(-c2cccc(NC(=O)COc3ccccc3)c2)nn1
- EC50 (cells [7]): > 350 µM (not active)
- EC50 (cells [8]): > 350 µM (not active)

Structure (SMILES): CCCOc1ccc(/C=N/Nc2ccccc2[N+](=O)[O-])c(OCCC)c1
- IC50 (Nonstructural protein 1): 7.73 µM (active)

Structure (SMILES): C#Cc1ccc2c(c1)COc1c3ccccc3nn1-2
- IC50 (Protein skinhead-1): > 100 µM (inactive)

Structure (SMILES): COc1ccc(-c2csc(NCCc3nc4cc(Cl)c(Cl)cc4n3CCCO)n2)cc1
- CC50 [12]: 19.6 µM (active)

Structure (SMILES): CC(C)c1ccc(NC(=O)[C@@H]2CCC(=O)N2C2OC(=O)c3ccccc32)cc1 (stereo not given in full)
- EC50 [9]: 24.5 µM (active)
- EC50 (H4): 38.2 µM (active)
- EC50 [10]: 0.143 µM (active)

Structure (SMILES): Cc1cc(C)c2c(-n3cccc3)c(C(=O)NNS(=O)(=O)c3ccc(Br)cc3)sc2n1
- CC50 [12]: 19 µM (active)
- AC50 [17]: 74.4 µM (active)

Structure (SMILES): COc1ccc(N=Nc2cnc(C)nc2-c2ccccc2)cc1
- IC50 (Nonstructural protein 1): 43.8 µM (active)

Structure (SMILES): CCc1ccc(Nc2c([N+](=O)[O-])nn(-c3ccccc3)[n+]2[O-])cc1
- EC50 [13]: > 60 µM (not active)
- IC50 (Nonstructural protein 1): 81.8 µM (active)
- EC50 [14]: 0.461 µM (active)

Structure (SMILES): CCOCCn1c(COc2ccccc2)nc2ccccc21
- IC50 (Protein skinhead-1): > 100 µM (inactive)

Structure (SMILES): CCOC(=O)c1sc(NC(=O)CN2CC(C)OC(C)C2)nc1C (stereo not given)
- IC50 (Protein skinhead-1): > 100 µM (inactive)
